Data published in the NIST ThermoML archive (doi:10.1016/j.jct.2011.08.016).
± gives the expanded uncertainty stated by the source.

Assay: xn = mol fraction of the nth substance listed
Conditions: Liquid, Vibrating tube method

CCCCCCCCCC [decane] + CCCCCCC
Conditions | mass density [kg/m3]
323.15 K, 7000 kPa, x2 = 0.0531 | 711.49 ± 0.44
323.15 K, 7000 kPa, x2 = 0.2594 | 703.89 ± 0.44
323.15 K, 8000 kPa, x2 = 0.0531 | 712.35 ± 0.44
323.15 K, 8000 kPa, x2 = 0.2594 | 704.79 ± 0.45
323.15 K, 9000 kPa, x2 = 0.0531 | 713.2 ± 0.45
323.15 K, 9000 kPa, x2 = 0.2594 | 705.68 ± 0.45
323.15 K, 10000 kPa, x2 = 0.0531 | 714.07 ± 0.45
323.15 K, 10000 kPa, x2 = 0.2594 | 706.56 ± 0.46
323.15 K, 10990 kPa, x2 = 0.0531 | 714.9 ± 0.46
323.15 K, 10990 kPa, x2 = 0.2594 | 707.43 ± 0.46
323.15 K, 12000 kPa, x2 = 0.0531 | 715.73 ± 0.46
323.15 K, 12000 kPa, x2 = 0.2594 | 708.29 ± 0.47
323.15 K, 13000 kPa, x2 = 0.0531 | 716.54 ± 0.47
323.15 K, 13000 kPa, x2 = 0.2594 | 709.14 ± 0.47
323.15 K, 14000 kPa, x2 = 0.0531 | 717.35 ± 0.47
323.15 K, 14000 kPa, x2 = 0.2594 | 709.98 ± 0.48
323.15 K, 15000 kPa, x2 = 0.0531 | 718.14 ± 0.48
323.15 K, 15000 kPa, x2 = 0.2594 | 710.81 ± 0.49
323.15 K, 16000 kPa, x2 = 0.0531 | 718.92 ± 0.48
323.15 K, 16000 kPa, x2 = 0.2594 | 711.62 ± 0.49
323.15 K, 17000 kPa, x2 = 0.0531 | 719.7 ± 0.49
323.15 K, 17000 kPa, x2 = 0.2594 | 712.43 ± 0.5
323.15 K, 18000 kPa, x2 = 0.0531 | 720.46 ± 0.5
323.15 K, 18000 kPa, x2 = 0.2594 | 713.25 ± 0.5
323.15 K, 19000 kPa, x2 = 0.0531 | 721.21 ± 0.5
323.15 K, 19000 kPa, x2 = 0.2594 | 714.01 ± 0.51
323.15 K, 20000 kPa, x2 = 0.0531 | 721.96 ± 0.51
323.15 K, 20000 kPa, x2 = 0.2594 | 714.78 ± 0.52
323.15 K, 21000 kPa, x2 = 0.0531 | 722.7 ± 0.51
323.15 K, 21000 kPa, x2 = 0.2594 | 715.55 ± 0.52
323.15 K, 22000 kPa, x2 = 0.0531 | 723.41 ± 0.52
323.15 K, 22000 kPa, x2 = 0.2594 | 716.3 ± 0.53
323.15 K, 23000 kPa, x2 = 0.0531 | 724.12 ± 0.53
323.15 K, 23000 kPa, x2 = 0.2594 | 716.98 ± 0.53
323.15 K, 24000 kPa, x2 = 0.0531 | 724.82 ± 0.53
323.15 K, 24000 kPa, x2 = 0.2594 | 717.65 ± 0.54
323.15 K, 25000 kPa, x2 = 0.0531 | 725.51 ± 0.54
323.15 K, 25000 kPa, x2 = 0.2594 | 718.3 ± 0.55
323.16 K, 1000 kPa, x2 = 0.777 | 673.59 ± 0.43
323.16 K, 2000 kPa, x2 = 0.777 | 674.58 ± 0.43
323.16 K, 3000 kPa, x2 = 0.777 | 675.56 ± 0.44
323.16 K, 4000 kPa, x2 = 0.777 | 676.57 ± 0.44
323.16 K, 5000 kPa, x2 = 0.777 | 677.56 ± 0.45
323.16 K, 6000 kPa, x2 = 0.777 | 678.57 ± 0.45
323.16 K, 7000 kPa, x2 = 0.777 | 679.58 ± 0.46
323.16 K, 8000 kPa, x2 = 0.777 | 680.57 ± 0.46
323.16 K, 9000 kPa, x2 = 0.777 | 681.56 ± 0.47
323.16 K, 10000 kPa, x2 = 0.777 | 682.54 ± 0.48
323.16 K, 10990 kPa, x2 = 0.777 | 683.5 ± 0.48
323.16 K, 12000 kPa, x2 = 0.777 | 684.45 ± 0.49
323.16 K, 13000 kPa, x2 = 0.777 | 685.39 ± 0.5
323.16 K, 14000 kPa, x2 = 0.777 | 686.31 ± 0.5
323.16 K, 15000 kPa, x2 = 0.777 | 687.21 ± 0.51
323.16 K, 16000 kPa, x2 = 0.777 | 688.1 ± 0.52
323.16 K, 17000 kPa, x2 = 0.777 | 688.99 ± 0.52
323.16 K, 18000 kPa, x2 = 0.777 | 689.87 ± 0.53
323.16 K, 19000 kPa, x2 = 0.777 | 690.73 ± 0.54
323.16 K, 20000 kPa, x2 = 0.777 | 691.58 ± 0.54
323.16 K, 21000 kPa, x2 = 0.777 | 692.41 ± 0.55
323.16 K, 22000 kPa, x2 = 0.777 | 693.22 ± 0.56
323.16 K, 23000 kPa, x2 = 0.777 | 693.96 ± 0.57
323.16 K, 24000 kPa, x2 = 0.777 | 694.7 ± 0.57
323.16 K, 25000 kPa, x2 = 0.777 | 695.42 ± 0.58
333.11 K, 1000 kPa, x2 = 0.5219 | 679.05 ± 0.42
333.11 K, 2000 kPa, x2 = 0.5219 | 680.06 ± 0.43
333.11 K, 3000 kPa, x2 = 0.5219 | 681.02 ± 0.43
333.11 K, 4000 kPa, x2 = 0.5219 | 682.02 ± 0.44
333.11 K, 5000 kPa, x2 = 0.5219 | 683.02 ± 0.44
333.11 K, 6000 kPa, x2 = 0.5219 | 684.02 ± 0.45
333.11 K, 7000 kPa, x2 = 0.5219 | 685.02 ± 0.45
333.11 K, 8000 kPa, x2 = 0.5219 | 686.03 ± 0.46
333.11 K, 9000 kPa, x2 = 0.5219 | 687.04 ± 0.46
333.11 K, 10000 kPa, x2 = 0.5219 | 688.03 ± 0.47
333.11 K, 10990 kPa, x2 = 0.5219 | 689.01 ± 0.48
333.11 K, 12000 kPa, x2 = 0.5219 | 689.97 ± 0.48
333.11 K, 13000 kPa, x2 = 0.5219 | 690.92 ± 0.49
333.11 K, 14000 kPa, x2 = 0.5219 | 691.85 ± 0.49
333.11 K, 15000 kPa, x2 = 0.5219 | 692.77 ± 0.5
333.11 K, 16000 kPa, x2 = 0.5219 | 693.68 ± 0.51
333.11 K, 17000 kPa, x2 = 0.5219 | 694.58 ± 0.51
333.11 K, 18000 kPa, x2 = 0.5219 | 695.49 ± 0.52
333.11 K, 19000 kPa, x2 = 0.5219 | 696.33 ± 0.53
333.11 K, 20000 kPa, x2 = 0.5219 | 697.15 ± 0.53
333.11 K, 21000 kPa, x2 = 0.5219 | 697.97 ± 0.54
333.11 K, 22000 kPa, x2 = 0.5219 | 698.76 ± 0.55
333.11 K, 23000 kPa, x2 = 0.5219 | 699.54 ± 0.55
333.11 K, 24000 kPa, x2 = 0.5219 | 700.3 ± 0.56
333.11 K, 25000 kPa, x2 = 0.5219 | 701.04 ± 0.57
333.12 K, 1000 kPa, x2 = 0.0531 | 698.2 ± 0.41
333.12 K, 1000 kPa, x2 = 0.777 | 665.15 ± 0.43
333.12 K, 2000 kPa, x2 = 0.0531 | 699.22 ± 0.42
333.12 K, 2000 kPa, x2 = 0.777 | 666.23 ± 0.43
333.12 K, 3000 kPa, x2 = 0.0531 | 700.22 ± 0.42
333.12 K, 3000 kPa, x2 = 0.777 | 667.33 ± 0.44
